Measured values taken from PMC8750527 (Cancers, 2021).

Legend:
C8-D1A astrocytes = test: Cell viability, propidium iodine incorporation, C8-D1A; format: cell-based, murine; conditions: 48 h; axitinib, cabozantinib, sunitinib 5 µM, etoposide 1 µM
Protocol: Cell viability assays were conducted using a propidium iodine incorporation technique with an ADAM-sHIT automated cell counter (NanoEnTek, Gyeonggi-do, Korea) according to the manufacturer’s protocol.

[1] = test system: C8-D1A/HD-MB03 mixed spheroids; test: 3D mixed spheroids of astrocytes and MB cells; format: cell-based; conditions: 7 days; axitinib 5 µM or etoposide 1 µM
Protocol: C8-D1A cells were stained with the green fluorescent probe neuro-DiO (cat. number 60015, Biotium, Fremont, CA, USA) according to the manufacturer’s protocol. C8-D1A-neuroDio cells (150,000) and HD-MB03-mCherry or DAOY-mCherry cells (50,000) were plated in 12-well plates. […] Fluorescence images of the cells were taken with a DMI400 inverted microscope (Leica Microsystemes SAS, Nanterre, France) equipped with a 40× objective and a Zyla 5.5 camera (Andor Technologies, Belfast, UK). The cells were then trypsinized and the number of both cell types was quantified using a Melody FACS (BD Biosciences, Frankton Lake, NJ, USA) with a 488 nm laser beam. Analysis of the FACS data was conducted with the Flowjo software (Tree Star Inc., Ashland, OR, USA).
Two thousand cells were seeded in ultralow-adhesion 96-well plates (Corning Inc., Corning, NY, USA). […] Pictures were taken with an AMG Evos microscope 40× objective (Thermo Fisher Scientific Inc, Waltham, MA, USA) and the spheroid areas were measured using the ImageJ software (NIH, Bethesda, MD, USA).

Compound: CNC(=O)c1ccccc1Sc1ccc2c(/C=C/c3ccccn3)n[nH]c2c1 [Axitinib, axitinib]
- viability of C8-D1A normal cells (C8-D1A astrocytes): no effect on the viability
- size of mixed spheroids [1]: strong decrease in the size of spheroids
